# Where “and” joins values, the source holds several entries; their conditions need not be identical. Equal entries are not always repeated. Ends that are not written are not given here.
# Tests used:
# [1] = tested on: collagen synthesis in HDF-N cells; assay: Synthesis of collagen, PIP (procollagen Type 1C-peptide) ELISA; type: cell-based, human; conditions: 12.5 μM, 24 hours
# Description: HDF-N cells were inoculated at a concentration of 1×10^4 cells/well into a 96-well plate and incubated for 24 hours. Then, the medium was removed, followed by washing twice with PBS, and replaced with a serum-free medium. Thereafter, 12.5 μM KTTKS (SEQ ID NO: 5), Spep001-KTTKS (SEQ ID NO: 6) and pal-KTTKS were added to each well and then incubated for 24 hours. Then, 10 μL of the cell culture fluid was obtained and centrifuged at 800 rpm for 5 minutes. Thereafter, the degree of synthesis of collagen was checked using a PIP (procollagen Type 1C-peptide) ELISA kit (MK101, Takara), and the result thereof is shown in FIG. 10 and Table 8 below.
# [2] = Cytotoxicity assay of difunctional peptide (WST-1, microscopy); type: cell-based, human; conditions: human, HDF-N cells, HDF-N, read-out: cell proliferation rate / survival rate (WST-1); for viability at 24 h, 12.5 µM: 12.5 μM peptide; for viability at 24 h, 25 µM: 25 μM peptide; for viability at 24 h, 50 µM: 50 μM peptide; for viability at 24 h, 100 µM: 100 μM peptide
# HDF-N = assay: as above; type: cell-based, human; conditions: for change in the appearance of the cells (microscope): 12.5 μM to 100 μM
# HDF-N cells = type: cell-based, human; conditions: for Cell viability(%): human, 24 h, 12.5 μM
# Description: (§1) Cytotoxicity of the cell-penetrating multifunctional peptide according to Example 1 was checked. Specifically, HaCaT cells (human keratinocytes) were inoculated at a concentration of 1.5×10^4 cells/well into a 96-well plate and incubated for 24 hours. Then, the medium was removed, followed by washing once with PBS, and replaced with a serum-free medium. The cells were treated with Spep001 (SEQ ID NO: 1), Spep002 (SEQ ID NO: 8) or Spep003 (SEQ ID NO: 9) at a concentration of 0 μM, 25 μM, 50 μM, 100 μM or 200 μM and then further incubated for 24 hours. Herein, culture conditions were maintained at 37° C. with 5% CO2.
# (§2) Also, at the time of completion of incubation, a WST-1 assay (Water Soluble Tetrazolium salt-1, EZ-assay kit, DoGenBio) was conducted. Specifically, 100 μL of a WST-1 solution was added to the well of cells after the completion of further incubation and then incubated for 3 hours. Thereafter, the absorbance at 450 nm was measured using a microplate spectrophotometer (Multiskan™ GO, thermo), and the result thereof is shown in FIG. 2B and Table 2 below.
# HDF-N cells were treated with 12.5 μM KTTKS (SEQ ID NO: 5), Spep001-KTTKS (SEQ ID NO: 6) and pal-KTTKS which are peptides fabricated in Example 9. The appearance and proliferation rate of the cells were measured as in Example 3, and the results thereof are shown in FIG. 9A(i) to FIG. 9A(iv), FIG. 9B and Table 7 below.
# [3] = Cytotoxicity assay (WST-1, microscopy) in HaCaT cells; type: cell-based, human; conditions: human, HaCaT cells (keratinocytes); for viability at 24 h, 25 µM / viability at 24 h, 50 µM / viability at 24 h, 100 µM / viability at 24 h, 200 µM: HaCaT, read-out: survival rate (WST-1); for viability at 24 h, 25 µM: 25 μM peptide; for viability at 24 h, 50 µM: 50 μM peptide; for viability at 24 h, 100 µM: 100 μM peptide; for viability at 24 h, 200 µM: 200 μM peptide; for viability at 24 h: at all concentrations (25-200 μM), read-out: survival rates of the HaCaT cells
# Description: as §1
# (§3) At the time of completion of further incubation, the appearance of the cells were imaged by a microscope, and the result thereof is shown in FIG. 2A(i) to FIG. 2A(xx).
# as §2
# (§4) Herein, all the result values are expressed in mean±standard deviation. The analysis result of each item was statistically analyzed by a 2-way analysis of variance (ANOVA) test. A Bonferroni post-test was conducted at a P value of *p<0.05 and **p<0.01 only when the significance was determined by ANOVA test. GraphPad prism 5.0.1 (GraphPad Software Inc., San Diego, CA, USA) was used as a statistical software program.
# [4] = tested on: HaCaT cells (human keratinocytes); assay: as above; type: cell-based; conditions: for cytotoxicity: HaCaT cells; for change in the appearance of the cells (microscope): HaCaT, all concentrations
# Description: as §1, §3, §2, §4
# [5] = Cytotoxicity assay (WST-1, microscopy) in HDF-N cells; type: cell-based, human; conditions: human, HDF-N cells (dermal fibroblasts, neonatal); for viability at 24 h, 25 µM / viability at 24 h, 50 µM / viability at 24 h, 100 µM / viability at 24 h, 200 µM: HDF-N, read-out: survival rate (WST-1); for viability at 24 h, 25 µM: 25 μM peptide; for viability at 24 h, 50 µM: 50 μM peptide; for viability at 24 h, 100 µM: 100 μM peptide; for viability at 24 h, 200 µM: 200 μM peptide; for viability at 24 h: at all concentrations (25-200 μM), read-out: survival rates of the HDF-N cells
# Description: as §1, §2
# (§5) The appearance of HDF-N (human dermal fibroblast-neonatal) cells were imaged by a microscope as in Example 3, and the result thereof is shown in FIG. 3A(i) to FIG. 3A(xx). However, the HDF-N cells were inoculated at a concentration of 1.0×10^4 cells/well into a 96-well plate.
# [6] = tested on: HDF-N (human dermal fibroblast-neonatal) cells; assay: as above; type: cell-based; conditions: for cytotoxicity: HDF-N cells; for change in the appearance of the cells (microscope): HDF-N, all concentrations
# Description: as §1, §2, §5
Substance,"viability at 24 h, 12.5 µM [2] [%]","viability at 24 h, 25 µM [2] [%]","viability at 24 h, 50 µM [2] [%]","viability at 24 h, 100 µM [2] [%]",change in the appearance of the cells (microscope) (HDF-N),change in the appearance of the cells (microscope) (HDF-N cells),"viability at 24 h, 25 µM [3] [%]","viability at 24 h, 50 µM [3] [%]","viability at 24 h, 100 µM [3] [%]","viability at 24 h, 200 µM [3] [%]",viability at 24 h [3] [%],cytotoxicity [4],change in the appearance of the cells (microscope) [4],"viability at 24 h, 25 µM [5] [%]","viability at 24 h, 50 µM [5] [%]","viability at 24 h, 100 µM [5] [%]","viability at 24 h, 200 µM [5] [%]",viability at 24 h [5] [%],cytotoxicity [6],change in the appearance of the cells (microscope) [6],also measured
"H-KTTKS-OH [KTTKS, reference compound]",104 ± 13,107 ± 20.1,105 ± 4.28,119 ± 11.6,no change in the appearance,no change in the appearance,–,–,–,–,–,–,–,–,–,–,–,–,–,–,PIP (collagen in cell culture fluid) [1]: 203.24 ng/mL and 203.24 ± 10.74 ng/mL; amount of collagen synthesized based on the control [1]: 159.99%; Cell viability(%) (HDF-N cells): 110.58%
"KRRWRKIPKR [Spep002, KRRWRKIPKR]",–,–,–,–,–,–,104.7 ± 0.17,103 ± 1.97,101 ± 1.97,99.01 ± 0.62,≥ 90,do not express cytotoxicity,no change in the appearance,102 ± 4.11,104.6 ± 0.75,108 ± 1.66,101 ± 2.44,≥ 90,do not express cytotoxicity,no change in the appearance,–
"KTTKSRLRLRQRRRR [KTTKS-Spep001, KTTKSRLRLRQRRRR]",111 ± 8.6,120 ± 4.46,107 ± 7.61,94.1 ± 3.2,no change in the appearance,–,–,–,–,–,–,–,–,–,–,–,–,–,–,–,cell proliferation (in words) (HDF-N; compared to control (0 μM)): maintained at a level similar to that of a control
"RKRWLRKPRP [Spep003, RKRWLRKPRP]",–,–,–,–,–,–,98.3 ± 4.45,98.6 ± 1.01,103 ± 0.6,99.9 ± 1.79,≥ 90,do not express cytotoxicity,no change in the appearance,118 ± 5.3,104 ± 1.71,108 ± 3.07,113.5 ± 0.59,≥ 90,do not express cytotoxicity,no change in the appearance,–
"RLRLRQRRRR [Spep001, RLRLRQRRRR]",–,–,–,–,–,–,103 ± 1.62,103 ± 2.21,106 ± 2.23,110 ± 7.48,≥ 90,do not express cytotoxicity,no change in the appearance,93.39 ± 0.66,101 ± 2.71,95 ± 1.53,94.5 ± 2.41,≥ 90,do not express cytotoxicity,no change in the appearance,–
"RLRLRQRRRRKTTKS [Spep001-KTTKS, RLRLRQRRRRKTTKS]",167 ± 13.4,148 ± 8.42,104 ± 3.16,106 ± 11.4,no change in the appearance,no change in the appearance,–,–,–,–,–,–,–,–,–,–,–,–,–,–,"cell proliferation rate / survival rate (WST-1) (HDF-N; HDF-N, 12.5 μM peptide): 167.45±13.38%; Cell viability(%) (HDF-N cells): 215.58%"
